Results from patent US11912701B2, “Protein kinase inhibitors for promoting liver regeneration or reducing or preventing hepatocyte death” (HEPAREGENIX GMBH, priority 2018, dated 2024).
pIC50: −log10 of the molar value.

Assays:
Assay type in all cases: biochemical
[1] = target: T1, MKK4 (Homo sapiens, UniProt P45985); test: 33PanQinase enzyme assay, MKK4; conditions: assay 'IC50'; for pIC50: read-out: Potency MKK4 (IC50)
T1 construct: purchased ProQinase GmbH, Freiburg, Germany (33PanQinase Assay Service)
T1 sequence (P45985 1-399): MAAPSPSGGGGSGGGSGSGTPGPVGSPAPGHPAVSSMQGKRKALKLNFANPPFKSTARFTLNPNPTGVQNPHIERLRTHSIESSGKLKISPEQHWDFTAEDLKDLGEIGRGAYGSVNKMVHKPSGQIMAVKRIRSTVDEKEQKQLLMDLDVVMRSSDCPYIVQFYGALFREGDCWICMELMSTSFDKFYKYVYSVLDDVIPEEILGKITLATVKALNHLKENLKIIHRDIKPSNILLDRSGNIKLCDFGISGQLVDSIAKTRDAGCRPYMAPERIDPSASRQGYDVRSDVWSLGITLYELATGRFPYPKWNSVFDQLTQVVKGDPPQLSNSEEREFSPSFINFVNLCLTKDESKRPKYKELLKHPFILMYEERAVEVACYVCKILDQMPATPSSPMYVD
Outline: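 Radiometric 33PanQinase assay: kinase, substrate, ATP and compound in standard buffer, 60 min at 30 °C; 33Pi incorporation read by scintillation counting.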

[2] = target: T2, BRaf (Homo sapiens, UniProt P15056); test: 33PanQinase enzyme assay, BRaf; conditions: ratio IC50(BRaf)/IC50(MKK4)
T2 construct: purchased ProQinase GmbH, Freiburg, Germany (33PanQinase Assay Service)
Outline: (§1)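 Radiometric 33PanQinase format: kinase with substrate, ATP and compound (added in 10% DMSO stock) incubated 60 min at 30° C, stopped with 2% H3PO4, ^33Pi incorporation counted by scintillation. Single-concentration data given as % residual activity; IC50 by least-squares fit, with selectivity as IC50(off-target)/IC50(MKK4).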

[3] = target: JNK1 (Homo sapiens, UniProt P45983); test: 33PanQinase enzyme assay, JNK1; parameters: purchased ProQinase GmbH, Freiburg, Germany (33PanQinase Assay Service); conditions: ratio IC50(JNK1)/IC50(MKK4)
Outline: as §1

[4] = target: T3, MKK7 (Homo sapiens, UniProt O14733); test: 33PanQinase enzyme assay, MKK7; parameters: purchased ProQinase GmbH, Freiburg, Germany (33PanQinase Assay Service); conditions: ratio IC50(MKK7)/IC50(MKK4)
T3 sequence (O14733 1-419): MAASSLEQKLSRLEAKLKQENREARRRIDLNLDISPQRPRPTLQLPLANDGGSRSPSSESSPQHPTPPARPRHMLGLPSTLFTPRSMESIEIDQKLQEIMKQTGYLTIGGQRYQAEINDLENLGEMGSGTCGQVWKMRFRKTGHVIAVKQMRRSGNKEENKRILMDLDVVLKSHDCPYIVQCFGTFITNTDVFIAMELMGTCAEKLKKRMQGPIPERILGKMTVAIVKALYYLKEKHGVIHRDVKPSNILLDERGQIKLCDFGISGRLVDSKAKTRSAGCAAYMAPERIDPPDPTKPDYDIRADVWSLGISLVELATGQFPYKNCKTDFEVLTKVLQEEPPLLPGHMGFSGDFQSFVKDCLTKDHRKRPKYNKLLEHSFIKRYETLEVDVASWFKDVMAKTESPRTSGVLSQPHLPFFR
Outline: as §1

T2 sequence (P15056 whole entry, species assumed): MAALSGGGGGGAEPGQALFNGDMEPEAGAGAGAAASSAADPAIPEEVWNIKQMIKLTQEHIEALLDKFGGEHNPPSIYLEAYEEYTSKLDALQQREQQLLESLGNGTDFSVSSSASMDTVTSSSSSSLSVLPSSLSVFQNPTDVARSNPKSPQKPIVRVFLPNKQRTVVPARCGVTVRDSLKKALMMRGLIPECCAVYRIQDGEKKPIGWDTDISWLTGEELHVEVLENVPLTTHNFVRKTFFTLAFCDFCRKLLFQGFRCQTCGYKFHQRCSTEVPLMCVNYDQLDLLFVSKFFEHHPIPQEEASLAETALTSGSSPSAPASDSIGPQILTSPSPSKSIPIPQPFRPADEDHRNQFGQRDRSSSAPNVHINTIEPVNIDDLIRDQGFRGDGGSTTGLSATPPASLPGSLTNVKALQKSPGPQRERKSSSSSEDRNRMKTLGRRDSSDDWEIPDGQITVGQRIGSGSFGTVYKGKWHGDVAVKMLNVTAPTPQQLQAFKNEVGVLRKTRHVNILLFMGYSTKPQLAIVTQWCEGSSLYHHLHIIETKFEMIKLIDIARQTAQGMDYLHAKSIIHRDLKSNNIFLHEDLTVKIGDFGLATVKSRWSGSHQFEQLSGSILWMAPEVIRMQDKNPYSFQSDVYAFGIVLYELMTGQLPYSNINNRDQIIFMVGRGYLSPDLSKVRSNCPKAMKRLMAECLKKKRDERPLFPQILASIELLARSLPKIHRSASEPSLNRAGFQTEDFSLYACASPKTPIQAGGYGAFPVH
JNK1, sequence (P45983 whole entry): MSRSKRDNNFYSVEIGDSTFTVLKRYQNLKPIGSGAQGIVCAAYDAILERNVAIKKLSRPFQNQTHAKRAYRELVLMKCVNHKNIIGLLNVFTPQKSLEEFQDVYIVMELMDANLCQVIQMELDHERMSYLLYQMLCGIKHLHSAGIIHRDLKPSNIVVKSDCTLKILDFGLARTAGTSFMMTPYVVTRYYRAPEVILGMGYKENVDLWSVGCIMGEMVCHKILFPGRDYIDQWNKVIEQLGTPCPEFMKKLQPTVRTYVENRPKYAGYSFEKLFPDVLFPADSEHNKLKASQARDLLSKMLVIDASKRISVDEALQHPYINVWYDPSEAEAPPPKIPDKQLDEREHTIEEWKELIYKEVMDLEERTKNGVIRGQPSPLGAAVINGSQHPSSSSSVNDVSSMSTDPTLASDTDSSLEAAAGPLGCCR

With CCCS(=O)(=O)Nc1c(F)ccc(C(=O)c2c[nH]c3ncc(-c4ccnnc4)cc23)c1F [Example 144, N-(2,6-difluoro-3-(5-(pyridazin-4-yl)-1H-pyrrolo[2,3-b]pyridine-3-carbonyl)phenyl)propane-1-sulfonamide] the pIC50 [1] was over 7.00, the “Selectivity Braf, IC50(off-target)/IC50(MKK4)” value (“Selectivity Braf” below) [2] was “++ (100 ≥ IC50(off-target)/IC50(MKK4) > 10)” and the “Selectivity JNK1, IC50(off-target)/IC50(MKK4)” value (“Selectivity JNK1” below) [3] was “+++ (IC50(off-target)/IC50(MKK4) > 100)”. For the same molecule, the “Selectivity IVIKK7, IC50(off-target)/IC50(MKK4)” value (“Selectivity IVIKK7” below) [4] was “+++ (IC50(off-target)/IC50(MKK4) > 100)”.

In the case of Cc1ncc(-c2cnc3[nH]cc(C(=O)c4ccc(F)c(NS(=O)(=O)CCC(F)(F)F)c4F)c3c2)cn1 [Example 147, N-(2,6-difluoro-3-(5-(2-methylpyrimidin-5-yl)-1H-pyrrolo[2,3-b]pyridine-3-carbonyl)phenyl)-3,3,3-trifluoropropane-1-sulfonamide], the pIC50 [1] was over 7.00, the “Selectivity Braf” value [2] was “++ (100 ≥ IC50(off-target)/IC50(MKK4) > 10)” and the “Selectivity JNK1” value [3] was “+++ (IC50(off-target)/IC50(MKK4) > 100)”. The “Selectivity IVIKK7” value [4] was “+++ (IC50(off-target)/IC50(MKK4) > 100)”.

In the case of CS(=O)(=O)Nc1c(F)ccc(C(=O)c2c[nH]c3ncc(-c4ccc(Cl)cc4)cc23)c1F [Example 149, N-(3-(5-(4-chlorophenyl)-1H-pyrrolo[2,3-b]pyridine-3-carbonyl)-2,6-difluorophenyl)methanesulfonamide], the pIC50 [1] was 6.00 to 7.00, the “Selectivity Braf” value [2] was “++ (100 ≥ IC50(off-target)/IC50(MKK4) > 10)” and the “Selectivity JNK1” value [3] was “++ (100 ≥ IC50(off-target)/IC50(MKK4) > 10)”. The “Selectivity IVIKK7” value [4] was “+++ (IC50(off-target)/IC50(MKK4) > 100)”.

O=C(c1ccc(F)c(NS(=O)(=O)CCC(F)(F)F)c1F)c1c[nH]c2ncc(-c3ccc(Cl)cc3)cc12 [Example 150, N-(3-(5-(4-chlorophenyl)-1H-pyrrolo[2,3-b]pyridine-3-carbonyl)-2,6-difluorophenyl)-3,3,3-trifluoropropane-1-sulfonamide] was tested, and the pIC50 [1] was over 7.00, the “Selectivity Braf” value [2] was “+++ (IC50(off-target)/IC50(MKK4) > 100)” and the “Selectivity JNK1” value [3] was “+++ (IC50(off-target)/IC50(MKK4) > 100)”. The “Selectivity IVIKK7” value [4] was “+++ (IC50(off-target)/IC50(MKK4) > 100)”.

For CCCS(=O)(=O)Nc1c(F)ccc(C(=O)c2c[nH]c3ncc(-c4ccc(S(C)(=N)=O)cc4)cc23)c1F (centres unmarked) [Example 151, N-(2,6-difluoro-3-(5-(4-(S-methylsulfonimidoyl)phenyl)-1H-pyrrolo[2,3-b]pyridine-3-carbonyl)phenyl)propane-1-sulfonamide], the pIC50 [1] was 6.00 to 7.00, the “Selectivity Braf” value [2] was “++ (100 ≥ IC50(off-target)/IC50(MKK4) > 10)” and the “Selectivity JNK1” value [3] was “++ (100 ≥ IC50(off-target)/IC50(MKK4) > 10)”. For the same molecule, the “Selectivity IVIKK7” value [4] was “+++ (IC50(off-target)/IC50(MKK4) > 100)”.

CCCS(=O)(=O)Nc1c(F)ccc(C(=O)c2c[nH]c3ncc(-c4ccc(O)cc4Cl)cc23)c1F [Example 152, N-(3-(5-(2-chloro-4-hydroxyphenyl)-1H-pyrrolo[2,3-b]pyridine-3-carbonyl)-2,6-difluorophenyl)propane-1-sulfonamide] was tested, and the pIC50 [1] was over 7.00, the “Selectivity Braf” value [2] was “+++ (IC50(off-target)/IC50(MKK4) > 100)” and the “Selectivity JNK1” value [3] was “++ (100 ≥ IC50(off-target)/IC50(MKK4) > 10)”. For the same molecule, the “Selectivity IVIKK7” value [4] was “+++ (IC50(off-target)/IC50(MKK4) > 100)”.

With CCCS(=O)(=O)Nc1c(F)ccc(C(=O)c2c[nH]c3ncc(-c4ccc(OCC(O)CO)cc4Cl)cc23)c1F (centres unmarked) [Example 153, N-(3-(5-(2-chloro-4-(2,3-dihydroxypropoxy)phenyl)-1H-pyrrolo[2,3-b]pyridine-3-carbonyl)-2,6-difluorophenyl)propane-1-sulfonamide] the pIC50 [1] was over 7.00, the “Selectivity Braf” value [2] was “+++ (IC50(off-target)/IC50(MKK4) > 100)” and the “Selectivity JNK1” value [3] was “++ (100 ≥ IC50(off-target)/IC50(MKK4) > 10)”. The “Selectivity IVIKK7” value [4] was “+++ (IC50(off-target)/IC50(MKK4) > 100)”.

With CCCS(=O)(=O)Nc1c(F)ccc(C(=O)c2c[nH]c3ncc(-c4ccc(OCC(O)CO)cc4)cc23)c1F (centres unmarked) [Example 154, N-(3-(5-(4-(2,3-dihydroxypropoxy)phenyl)-1H-pyrrolo[2,3-b]pyridine-3-carbonyl)-2,6-difluorophenyl)propane-1-sulfonamide] the pIC50 [1] was over 7.00, the “Selectivity Braf” value [2] was “++ (100 ≥ IC50(off-target)/IC50(MKK4) > 10)” and the “Selectivity JNK1” value [3] was “++ (100 ≥ IC50(off-target)/IC50(MKK4) > 10)”. The “Selectivity IVIKK7” value [4] was “+++ (IC50(off-target)/IC50(MKK4) > 100)”.

In the case of CCCS(=O)(=O)Nc1c(F)ccc(C(=O)c2c[nH]c3ncc(-c4ccc(S(F)(F)(F)(F)F)cc4)cc23)c1F [Example 155, N-(2,6-difluoro-3-(5-(4-(pentafluoro-l6-sulfaneyl)phenyl)-1H-pyrrolo[2,3-b]pyridine-3-carbonyl)phenyl)propane-1-sulfonamide], the “Potency MKK4 (IC50)” value [1] was “++·+”, the “Selectivity Braf” value [2] was “+++ (IC50(off-target)/IC50(MKK4) > 100)” and the “Selectivity JNK1” value [3] was “++ (100 ≥ IC50(off-target)/IC50(MKK4) > 10)”. The “Selectivity IVIKK7” value [4] was “+++ (IC50(off-target)/IC50(MKK4) > 100)”.

With CCCS(=O)(=O)Nc1c(F)ccc(C(=O)c2c[nH]c3ncc(-c4ccc(S(C)(=N)=O)nc4)cc23)c1F (centres unmarked) [Example 164, N-(2,6-difluoro-3-(5-(6-(S-methylsulfonimidoyl)pyridin-3-yl)-1H-pyrrolo[2,3-b]pyridine-3-carbonyl)phenyl)propane-1-sulfonamide] the pIC50 [1] was over 7.00, the “Selectivity Braf” value [2] was “++ (100 ≥ IC50(off-target)/IC50(MKK4) > 10)” and the “Selectivity JNK1” value [3] was “++ (100 ≥ IC50(off-target)/IC50(MKK4) > 10)”. The “Selectivity IVIKK7” value [4] was “+++ (IC50(off-target)/IC50(MKK4) > 100)”.

With CCCS(=O)(=O)Nc1c(F)ccc(C(=O)c2c[nH]c3ncc(-c4ccc(C)nc4C)cc23)c1F [Example 165, N-(3-(5-(2,6-dimethylpyridin-3-yl)-1H-pyrrolo[2,3-b]pyridine-3-carbonyl)-2,6-difluorophenyl)propane-1-sulfonamide] the pIC50 [1] was over 7.00, the “Selectivity Braf” value [2] was “+++ (IC50(off-target)/IC50(MKK4) > 100)” and the “Selectivity JNK1” value [3] was “+++ (IC50(off-target)/IC50(MKK4) > 100)”. The “Selectivity IVIKK7” value [4] was “+++ (IC50(off-target)/IC50(MKK4) > 100)”.

CCCS(=O)(=O)Nc1c(F)ccc(C(=O)c2c[nH]c3ncc(-c4ccc(C)nc4Cl)cc23)c1F [Example 166, N-(3-(5-(2-chloro-6-methylpyridin-3-yl)-1H-pyrrolo[2,3-b]pyridine-3-carbonyl)-2,6-difluorophenyl)propane-1-sulfonamide] was tested, and the pIC50 [1] was over 7.00, the “Selectivity Braf” value [2] was “+++ (IC50(off-target)/IC50(MKK4) > 100)” and the “Selectivity JNK1” value [3] was “+++ (IC50(off-target)/IC50(MKK4) > 100)”. The “Selectivity IVIKK7” value [4] was “+++ (IC50(off-target)/IC50(MKK4) > 100)”.

With CCCS(=O)(=O)Nc1c(F)ccc(C(=O)c2c[nH]c3ncc(-c4cnc(C5CC5)cc4C)cc23)c1F [Example 167, N-(3-(5-(6-cyclopropyl-4-methylpyridin-3-yl)-1H-pyrrolo[2,3-b]pyridine-3-carbonyl)-2,6-difluorophenyl)propane-1-sulfonamide] the pIC50 [1] was over 7.00, the “Selectivity Braf” value [2] was “+++ (IC50(off-target)/IC50(MKK4) > 100)” and the “Selectivity JNK1” value [3] was “+++ (IC50(off-target)/IC50(MKK4) > 100)”. For the same molecule, the “Selectivity IVIKK7” value [4] was “+++ (IC50(off-target)/IC50(MKK4) > 100)”.

In the case of CCCS(=O)(=O)Nc1c(F)ccc(C(=O)c2c[nH]c3ncc(-c4c(C)cc(C)nc4C)cc23)c1F [Example 168, N-(2,6-difluoro-3-(5-(2,4,6-trimethylpyridin-3-yl)-1H-pyrrolo[2,3-b]pyridine-3-carbonyl)phenyl)propane-1-sulfonamide], the pIC50 [1] was 6.00 to 7.00, the “Selectivity Braf” value [2] was “+++ (IC50(off-target)/IC50(MKK4) > 100)” and the “Selectivity JNK1” value [3] was “++ (100 ≥ IC50(off-target)/IC50(MKK4) > 10)”. For the same molecule, the “Selectivity IVIKK7” value [4] was “+++ (IC50(off-target)/IC50(MKK4) > 100)”.
